As usually defined, the EC50 is the midpoint of the concentration-response curve.

Values joined by “and” are separate entries in the source; they are usually repeats but may differ in a detail not shown here. Equal entries are not always repeated.

In this experiment the target is human mGluR5A (Homo sapiens, UniProt P41594). The experiment in a line: mGluR5 FLIPR Assay. It is filed as cell-based. Particulars: positive modulator activity; HEK293 (ZF) cells with human mGluR5A and rat GLAST; Ca++ response to ~EC10 glutamate. As for the experimental part: HEK293 (ZF) cells stably transfected with human mGluR5A (pIRES neo) and the rat glutamate-aspartate transporter (GLAST; pIRES puro) are grown in a monolayer culture at 37° C. in 5% CO2 and fed with Minimum Essential Medium (MEM) supplemented with 10% dialysed fetal bovine serum. 24 hours prior to assay, cells are enzymatically dissociated from the culture flask (Trypsin, 0.25%), spun down (1000 rpm, 3 min), resuspended, and plated on Greiner black clear bottomed PDL-coated 384-well plates at a density of 30 thousand cells/well. […] Plates are incubated in dye at 37° C. in 5% CO2 for 60 minutes prior to delivery of test compounds in assay buffer. Test compounds are incubated with cells in the presence of dye for 10 minutes prior to being read on the FLIPR platform (Molecular Devices). A Ca^++ signal is induced in the assay plates via the delivery of an ˜EC10 concentration of the endogenous agonist 1-glutamate; images are acquired at 1 Hz for 100 seconds post-delivery of agonist stimulus. Positive modulator activity (i.e. the ability of test compounds to increase the Ca^++ response to a sub-maximal concentration of agonist) is normalized to a saturating concentration of a known mGluR5 PAM run in each assay plate. An EC50 concentration of test compounds is derived from 4-parameter logistic curve fits of transformed fluoresence data via proprietary software suite.
Sequence of human mGluR5A (P41594 21-1180 isoform P41594-2): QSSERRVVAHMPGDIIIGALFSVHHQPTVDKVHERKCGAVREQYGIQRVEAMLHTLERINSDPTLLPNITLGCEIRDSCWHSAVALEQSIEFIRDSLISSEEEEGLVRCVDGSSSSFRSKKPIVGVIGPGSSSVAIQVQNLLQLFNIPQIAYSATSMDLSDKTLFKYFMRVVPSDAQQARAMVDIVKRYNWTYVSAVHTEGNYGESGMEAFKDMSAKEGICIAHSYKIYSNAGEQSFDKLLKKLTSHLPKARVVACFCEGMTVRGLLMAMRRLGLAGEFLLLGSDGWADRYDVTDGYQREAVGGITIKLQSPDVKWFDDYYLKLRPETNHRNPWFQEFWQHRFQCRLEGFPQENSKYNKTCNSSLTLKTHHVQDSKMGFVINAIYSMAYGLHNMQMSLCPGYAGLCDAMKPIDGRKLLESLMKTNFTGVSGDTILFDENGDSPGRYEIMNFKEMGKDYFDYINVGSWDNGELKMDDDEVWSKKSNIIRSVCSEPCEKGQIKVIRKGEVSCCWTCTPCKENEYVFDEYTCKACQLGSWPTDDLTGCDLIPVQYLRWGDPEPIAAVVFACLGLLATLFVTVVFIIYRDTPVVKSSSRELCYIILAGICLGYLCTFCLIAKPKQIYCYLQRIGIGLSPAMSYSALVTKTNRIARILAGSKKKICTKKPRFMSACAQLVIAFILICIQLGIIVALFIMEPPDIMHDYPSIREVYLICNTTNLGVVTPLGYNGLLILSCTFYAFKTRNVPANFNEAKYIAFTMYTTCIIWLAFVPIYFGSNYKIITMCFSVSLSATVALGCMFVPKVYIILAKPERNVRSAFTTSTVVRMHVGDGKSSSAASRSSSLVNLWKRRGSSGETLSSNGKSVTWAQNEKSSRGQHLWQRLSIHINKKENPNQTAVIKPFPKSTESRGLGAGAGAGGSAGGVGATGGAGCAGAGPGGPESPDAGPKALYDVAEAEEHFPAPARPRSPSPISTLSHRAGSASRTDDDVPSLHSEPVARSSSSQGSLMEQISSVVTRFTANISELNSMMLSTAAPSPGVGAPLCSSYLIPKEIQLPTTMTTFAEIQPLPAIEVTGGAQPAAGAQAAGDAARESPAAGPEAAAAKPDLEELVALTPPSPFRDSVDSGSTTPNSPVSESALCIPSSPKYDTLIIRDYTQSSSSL
Regarding `O=C1N[C@H](c2cncc(C#Cc3ccccc3)c2)[C@H](c2cc(Cl)ccc2Cl)O1` (single isomer, unassigned) [Example 327], the EC50 is more than 1 µM.
In the case of `O=C1N[C@@H](c2cncc(C#Cc3ccccc3)c2)[C@@H](c2cc(Cl)ccc2Cl)O1` (single isomer, unassigned) [Example 328], the half-maximal effective concentration (EC50) was more than 1 µM.
`O=C1N[C@@H](c2cncc(C#Cc3ccccc3)c2)[C@H](c2cccc(Cl)c2Cl)O1` (single isomer, unassigned) [Example 329] returned an EC50 of more than 1 µM.
Regarding `O=C1N[C@H](c2cncc(C#Cc3ccccc3)c2)[C@@H](c2cccc(Cl)c2Cl)O1` (single isomer, unassigned) [Example 330], the EC50 was less than 0.1 µM.
As to `O=C1N[C@H](c2cncc(C#Cc3ccccc3)c2)[C@H](c2cccc(Cl)c2Cl)O1` (single isomer, unassigned) [Example 331], the EC50 is more than 1 µM.
`O=C1N[C@@H](c2cncc(C#Cc3ccccc3)c2)[C@@H](c2cccc(Cl)c2Cl)O1` (single isomer, unassigned) [Example 332] registered an EC50 of more than 1 µM.
Under `COc1ccccc1[C@@H]1OC(=O)N[C@H]1c1cncc(C#Cc2ccccc2)c1` (single isomer, unassigned) [Example 333] stands more than 1 µM.
`COc1ccccc1[C@H]1OC(=O)N[C@@H]1c1cncc(C#Cc2ccccc2)c1` (single isomer, unassigned) [Example 334] returned a concentration giving a half-maximal response (EC50) of more than 3 µM.
For the molecule `COc1ccccc1[C@@H]1OC(=O)N[C@@H]1c1cncc(C#Cc2ccccc2)c1` (single isomer, unassigned) [Example 335], the 50% effective concentration (EC50) was more than 1 µM.
On to `COc1ccccc1[C@H]1OC(=O)N[C@H]1c1cncc(C#Cc2ccccc2)c1` (single isomer, unassigned) [Example 336], for which the EC50 was more than 1 µM.
Regarding `C[C@@]1(c2cncc(C#Cc3ncccc3F)c2)NC(=O)O[C@H]1c1ccc(F)cc1` (single isomer, unassigned) [Example 343], the EC50 was more than 1 µM.
Consider `C[C@@]1(c2cncc(C#Cc3ncccc3F)c2)NC(=O)O[C@H]1c1ccc(F)cc1` (single isomer, unassigned) [Example 344], for which the EC50 is less than 0.1 µM.
Under `O=C1N[C@@H](c2cncc(C#Cc3ccccc3)c2)[C@H](c2cccs2)O1` (single isomer, unassigned) [Example 345] stands more than 1 µM; under `O=C1N[C@H](c2cncc(C#Cc3ccccc3)c2)[C@@H](c2cccs2)O1` (single isomer, unassigned) [Example 346], < 0.1 µM and 0.0133 µM; under `O=C1N[C@H](c2cc(C#Cc3cccc(Cl)c3)ccn2)[C@@H](c2ccc(F)cc2)O1` (single isomer, unassigned) [Example 347], more than 1 µM.
In turn, `O=C1N[C@@H](c2cc(C#Cc3cccc(Cl)c3)ccn2)[C@H](c2ccc(F)cc2)O1` (single isomer, unassigned) [Example 348] gave a concentration for a half-maximal effect (EC50) of more than 1 µM.
In the case of `O=C1N[C@H](c2cc(C#Cc3ccc(Cl)cc3)ccn2)[C@@H](c2ccc(F)cc2)O1` (single isomer, unassigned) [Example 349], the EC50 is 0.1 to 1 µM and 0.305 µM.
Molecule `O=C1N[C@H](c2cc(C#Cc3ccccc3Cl)ccn2)[C@@H](c2ccc(F)cc2)O1` (single isomer, unassigned) [Example 351] registered an EC50 of 0.1 to 1 µM.
Take `O=C1N[C@@H](c2cc(C#Cc3ccccc3Cl)ccn2)[C@H](c2ccc(F)cc2)O1` (single isomer, unassigned) [Example 352]: the half-maximal effective concentration (EC50) is more than 1 µM.
`O=C1N[C@H](c2cc(C#Cc3ccccc3F)ccn2)[C@@H](c2ccc(F)cc2)O1` (single isomer, unassigned) [Example 353]: the EC50 is less than 0.1 µM.
Regarding `O=C1N[C@@H](c2cc(C#Cc3ccccc3F)ccn2)[C@H](c2ccc(F)cc2)O1` (single isomer, unassigned) [Example 354], the EC50 was 0.1 to 1 µM and 0.392 µM.
Regarding `O=C1N[C@H](c2cc(C#Cc3cccc(F)c3)ccn2)[C@@H](c2ccc(F)cc2)O1` (single isomer, unassigned) [Example 355], the EC50 was less than 0.1 µM.
`O=C1N[C@@H](c2cc(C#Cc3cccc(F)c3)ccn2)[C@H](c2ccc(F)cc2)O1` (single isomer, unassigned) [Example 356] showed an EC50 of 0.1 to 1 µM.
For the molecule `O=C1N[C@H](c2cc(C#Cc3ccc(F)cc3)ccn2)[C@@H](c2ccc(F)cc2)O1` (single isomer, unassigned) [Example 357], the EC50 was less than 0.1 µM.
Under `O=C1N[C@@H](c2cc(C#Cc3ccc(F)cc3)ccn2)[C@H](c2ccc(F)cc2)O1` (single isomer, unassigned) [Example 358] stands more than 1 µM.
Molecule `O=C1N[C@@H](c2cncc(C#Cc3ccccc3)c2)[C@H](c2ccc(Cl)cc2)O1` (single isomer, unassigned) [Example 359] returned an EC50 of 0.1 to 1 µM.
In the case of `O=C1N[C@H](c2cncc(C#Cc3ccccc3)c2)[C@@H](c2ccc(Cl)cc2)O1` (single isomer, unassigned) [Example 360], the 50% effective concentration (EC50) was < 0.1 µM and 0.002 µM.
For `O=C1N[C@@H](c2cncc(C#Cc3ccccc3)c2)[C@H](c2cccc(Cl)c2)O1` (single isomer, unassigned) [Example 361], the EC50 was more than 1 µM.
Under `O=C1N[C@H](c2cncc(C#Cc3ccccc3)c2)[C@@H](c2cccc(Cl)c2)O1` (single isomer, unassigned) [Example 362] stands less than 0.1 µM; under `O=C1N[C@@H](c2cncc(C#Cc3ccccc3)c2)[C@H](c2ccccc2Cl)O1` (single isomer, unassigned) [Example 363], less than 0.1 µM.
`O=C1N[C@H](c2cncc(C#Cc3ccccc3)c2)[C@@H](c2ccccc2Cl)O1` (single isomer, unassigned) [Example 364] displayed an EC50 of more than 1 µM.
`O=C1N[C@@H](c2cccc(C#Cc3ccccc3)n2)[C@H](c2cccnc2)O1` (single isomer, unassigned) [Example 366] gave an EC50 of more than 1 µM.
Consider `O=C1N[C@H](c2cccc(C#Cc3ccccc3)n2)[C@@H](c2cccnc2)O1` (single isomer, unassigned) [Example 367], for which the EC50 is more than 1 µM.
Consider `O=C1N[C@H](c2cccc(C#Cc3cnccn3)n2)[C@@H](c2ccc(F)cc2)O1` (single isomer, unassigned) [Example 368], for which the EC50 fell in the range of 0.1 to 1 µM.
Consider `O=C1N[C@@H](c2cccc(C#Cc3cnccn3)n2)[C@H](c2ccc(F)cc2)O1` (single isomer, unassigned) [Example 369], for which the EC50 is more than 1 µM.
For `O=C1N[C@H](c2cccc(C#Cc3ncccc3F)n2)[C@@H](c2ccc(F)cc2)O1` (single isomer, unassigned) [Example 370] the value was < 0.1 µM and 0.0318 µM.
For `O=C1NC(c2cccc(C#Cc3ncccc3F)n2)C(c2ccc(F)cc2)O1` (single isomer, unassigned) [Example 371] the value was more than 1 µM.
Turning to `O=C1N[C@H](c2cccc(C#Cc3ccnc(F)c3)n2)[C@@H](c2ccc(F)cc2)O1` (single isomer, unassigned) [Example 372], the EC50 is less than 0.1 µM.
`O=C1N[C@@H](c2cccc(C#Cc3ccnc(F)c3)n2)[C@H](c2ccc(F)cc2)O1` (single isomer, unassigned) [Example 373] registered an EC50 of more than 1 µM.
Molecule `O=C1N[C@@H](c2cc(C#Cc3ccccc3)cnc2F)[C@H](c2ccccc2F)O1` (single isomer, unassigned) [Example 374] had an EC50 of more than 1 µM.
In turn, `O=C1N[C@H](c2cc(C#Cc3ccccc3)cnc2F)[C@@H](c2ccccc2F)O1` (single isomer, unassigned) [Example 375] registered an EC50 of less than 0.1 µM.
Turning to `C[C@@]1(c2cccc(C#Cc3ccccc3)n2)NC(=O)O[C@@H]1c1ccccc1F` (single isomer, unassigned) [Example 376], the EC50 fell in the range of 0.1 to 1 µM.
Molecule `C[C@]1(c2cccc(C#Cc3ccccc3)n2)NC(=O)O[C@H]1c1ccccc1F` (single isomer, unassigned) [Example 377] had an EC50 of more than 1 µM.
`C[C@]1(c2cccc(C#Cc3ccccc3)n2)NC(=O)O[C@@H]1c1ccccc1F` (single isomer, unassigned) [Example 378]: the concentration for a half-maximal effect (EC50) is less than 0.1 µM.
The molecule `C[C@@]1(c2cccc(C#Cc3ccccc3)n2)NC(=O)O[C@H]1c1ccccc1F` (single isomer, unassigned) [Example 379] displayed an EC50 of more than 1 µM.
For the molecule `C[C@@]1(c2cncc(C#Cc3ccccc3)c2)NC(=O)O[C@H]1c1cc(F)ccc1F` (single isomer, unassigned) [Example 406], the EC50 fell in the range of 0.1 to 1 µM.
Take `C[C@]1(c2cncc(C#Cc3ccccc3)c2)NC(=O)O[C@@H]1c1cc(F)ccc1F` (single isomer, unassigned) [Example 407]: the concentration for a half-maximal effect (EC50) was less than 0.1 µM.
In the case of `COc1cccc([C@@H]2OC(=O)N[C@H]2c2cccc(C#Cc3ccc(C(F)(F)F)cc3)c2)c1` (stereo in doubt) [Example 120, (4S,5S)-5-(3-methoxyphenyl)-4-(3-((4-(trifluoromethyl)phenyl)ethynyl)phenyl)oxazolidin-2-one], the EC50 was more than 1 µM.
Regarding `COc1cccc([C@@H]2OC(=O)N[C@H]2c2cccc(C#Cc3ccccc3F)c2)c1` (stereo in doubt) [Example 122, (4S,5S)-4-(3-((2-fluorophenyl)ethynyl)phenyl)-5-(3-methoxyphenyl)oxazolidin-2-one], the EC50 is more than 1 µM.

For the origin of these results see patent USRE49735E1 (BRISTOL-MYERS SQUIBB COMPANY, priority 2010, dated 2023).
